Measured values from patent US11779597B2, “Method of treating Parkinson's and other neurodegenerative diseases” (Vector Vitale IP LLC, priority 2019, dated 2023).
Entries after “also recorded” stand apart in the source; their conditions may differ.

Key:
Assay type in all cases: in vivo
peritoneal macrophages = assay: Functional profile of peritoneal macrophages in 6-OHDA rat models after prophylactic administration; details: prophylactic i.p.
Protocol: (§1) Methods: Adult mature rodents were used in the study. […] Before prophylactic administration of the experimental drugs, the animals underwent an open field test to assay their general locomotor activity levels and anxiety. The prophylactic course consisted of 10 daily intraperitoneal injections of the drugs (in the case of combination drug, its components were administered at an interval of 2 hours). After the end of prophylactic course, Parkinson's disease was modelled in the animals. […] Ten days after the last (second) apomorphine test, the animals' behavioral responses were assessed in the open field test followed by euthanasia and analysis of functional (metabolic and phenotypic) profiles of phagocytes of different localization. Thus, the study of the functional profile of phagocytes in rat models of Parkinson's disease was performed on day 28 after the end of the course of prophylactic treatment with the experimental drugs. Resident peritoneal macrophages were isolated from sterile cell suspension of peritoneal exudate; enrichment of the suspension was carried out by 2-hour adhesion. Non-adherent and dead cells were separated by centrifugation. Functional characteristics of circulating phagocytes (monocytes and neutrophils) were evaluated in whole blood taken into a tube containing EDTA used as an anticoagulant. Mononuclear and polymorphonuclear phagocytes were analyzed on a flow cytofluorimeter using a gating method. Phagocytes of microglia were isolated using a Percoll density gradient. To assess the phenotypic profile of phagocytes, expression indices of the pan-phagocytic marker CD14 (co-receptor of the bacterial lipopolysaccharide) and the marker of alternative polarization of phagocytes CD206 (mannose receptor 1) were used. To characterize the metabolic profile, oxidative metabolism and phagocytic activity of microglia as well as the pathway of arginine metabolism were studied using flow cytometry and spectrometric methods respectively. FITC-labeled Staphylococcus aureus Wood 46 was used as the object of phagocytosis. The hemogram parameters were analyzed on the hematological analyzer Particle counter model PCE 210 (ERMA, Japan) adapted for the study of blood cells of rats and mice.

microglia = assay: Functional profile of microglia in 6-OHDA rat models after prophylactic administration; details: prophylactic i.p.
Protocol: as §1

[1] = tested on: LPS rat models of parkinsonism; assay: Apomorphine test in LPS rat models of parkinsonism
Protocol: Chronic dopamine deficiency of the left hemisphere was modeled by unilateral destruction of dopaminergic neurons in the Substantia nigra pars compacta portion of the brain. It was induced by stereotactic microinjections of 10 μg endotoxin (lipopolysaccharide) (Lipopolysaccharides from Escherichia coli O111:B4, cat. L2630 Sigma) dissolved in 2 μl sterile 0.9% NaCl (Infuzia CJSC, Ukraine). The solution was prepared on the day of a surgical procedure. A flask containing the resulting solution was sealed with a drop of silicone oil (STEP-E[…], Ukraine) and placed in a refrigerator.
An animal, anesthetized using a mixture of ketamine (75 mg/kg, diluted in sterile water for injection, Sigma, USA) and 2% xylazine ([…], Alfasan International B.V., Netherlands) administered intraperitoneally in a total volume of 1 ml, was placed in a stereotaxic apparatus (SEZH-4) modified for rats. The animal was then scalped and a trephine opening was made with an injection needle, directly into the substantia nigra (AP=−5.3; ML=±2.0; DV=−7.2). Dissolved LPS was collected into a home-made microinjector and its tip was dropped into the trephine opening.
Endotoxin at a dose of 10 μg in a volume of 2 μl was injected in the brain tissue at a rate of […] (every 15 seconds). After endotoxin was administered, the tip of the microinjector remained in the brain tissue for 5 minutes. The microinjector was then removed and stitches were put on the scalp soft tissues of the animal. Control animals were administered 2 μl sterile 0.9% NaCl, instead of LPS (sham operated animals).
The percentage of destroyed dopaminergic neurons was calculated using an apomorphine test. The intensity of rotational motions of an animal to the contralateral side of the hemisphere into which endotoxin was injected was assessed. A similar motor activity was induced by systemic intraperitoneal administration of apomorphine, a dopamine receptor agonist (0.5 mg/kg, Sigma, USA). The intensity of such rotational motions for 30 minutes indicated the degree of degradation of the nigrostriatal dopamine system (SA Talanov et al., Neurophysiology 38 (2), 128-133). The number of animals in which the number of rotations increased, decreased or remained unchanged within 30 minutes between apomorphine test I and II was quantified.
On the 1st day of the experiment, rats were either operated to model hemi-parkinsonism or sham operated. From the 9th to the 18th day of the experiment, the animals were injected either deuterium-depleted water or the test substance, according to their allocation into groups, for 10 days. […]

Substance: ^64Zn-enriched zinc aspartate [^64Zne-asp]
- CD206 expression level in CD14+ peritoneal phagocytes (peritoneal macrophages): further decrease
- NO synthesis by peritoneal macrophages (peritoneal macrophages): prevented an increase
- arginase activity of peritoneal macrophages (peritoneal macrophages): absence of any changes
- phagocytosis by peritoneal macrophages (peritoneal macrophages): prevented an increase
- NO synthesis by peritoneal macrophages (peritoneal macrophages; listed as zinc-based drug): decrease
- level of CD14 expression in microglia (microglia): increase
- level of CD206 expression in microglia (microglia): increase
- oxidative metabolism / ROS production of microglia versus intact animals (microglia): at the level of control intact animals
- oxidative metabolism of microglia, higher than in control rat models of Parkinson's disease (microglia): twice
- rats with increased number of rotations between the 1st and 2nd apomorphine tests ([1]; 1.5 mg/kg i.v. for 10 days, 2 out of 14 animals): 14.3%
- rats with a fewer number of rotations between the 1st and 2nd apomorphine tests ([1]; 1.5 mg/kg i.v. for 10 days, 12 out of 14 animals): 85.7%
- difference in the mean number of rotations between the 1st and 2nd apomorphine tests ([1]; LPS rats, 1.5 mg/kg i.v. for 10 days, listed as 64Zn-asp, 1.5 mg/kg): no significant difference; also recorded: did not cause a significant change
- mean number of rotations, 1st apomorphine test ([1]; LPS rats, day 8, before start of treatment): 91.2±107.7 rot./30 min
